Experimental data from US4570005A, “Process for the preparation of 2-arylpropyl ether or thioether derivatives” (priority 1980, dated 1986).

Tests used:
[1] = test system: sensitive green rice leafhopper (collected at Chigasaki); test: whole plant or invertebrate; format: in vivo; conditions: Nephotettix cincticeps, sensitive female adults, 24 hours, read-out: Mortality (%), Green Rice Leafhopper Collected at Chigasaki
Description: (§1) To a mixture of 20 parts of the compound of the present invention and 20 parts of Sorpol SM-200 (registered tradename for the product supplied by Toho Chemical Industrial Co., Ltd.) was added 60 parts of xylol, and the mixture was suffciently blended. The obtained emulsifiable concentrate was diluted at a predetermined concentration with distilled water, and the obtained dilution was used.
(§2) Seedlings (having 2 to 3 leaves) of paddy rice were hydroponically cultured in a pot having a diameter of 5 cm. A chemical dilution having a concentration of 100 or 20 ppm, prepared in the same manner as described in Test 1, was applied with a sprayer at a rate of 3 ml per pot. The treated seedlings were air-dried and covered with a metal net cylinder, and female adults of resistant green rice leafhopper (collected at Nakagawara) and sensitive green rice leafhopper (collected at Chigasaki) were set, respectively, free in the pot at a density of 10 adults per pot. After 24 hours, the numbers of killed and living adults were counted and the mortality was calculated. The test was made on three pots and the average value was calculated.

[2] = test system: resistant green rice leafhopper (collected at Nakagawara); test: Test 3: Effect on Resistant Green Rice Leafhopper (collected at Nakagawara); format: in vivo, Nephotettix cincticeps Uhler (Green rice leafhopper); conditions: Nephotettix cincticeps, 24 h, read-out: Mortality (%), Green Rice Leafhopper Collected at Nakagawara
Description: as §1, §2

Test 8: Fish Toxicity = format: in vivo; conditions: carp, water; concentration at which 1/2 of the test fishes were killed within 48 hours; read-out: Fish Toxicity, TLm48
Description: A water tank having a width of 60 cm, a length of 30 cm and a height of 40 cm was filled with water, and 10 yearling carps having a body length of about 5 cm were set free in the tank and adapted to the environment in the tank. A test compound was applied so that the concentration in water was 10, 1 or 0.1 ppm. After 48 hours, the numbers of killed and living carps were counted and the influences on the fishes were examined.

[3] = Test 9: Toxicity Test (acute oral toxicity, mice); conditions: mouse, in vivo, po
Description: A predetermined amount of a solution or suspension of a test compound in corn oil was orally administered to male mice having a body weight of 19 to 23 g (0.2 ml per 10 g of the body weight). After 7 days, the number of killed mice was counted and the influences on the mice were examined.

tobacco cutworm [4] = test: Test 2: Tobacco Cutworm Larva Dipping Test, mortality after 24 hours; format: in vivo; conditions: 24 hours
Description: as §1
A dilution having a chemical concentration of 100 or 20 ppm was prepared in the same manner as described in Test 1.
Second-instar and fifth-instar larvae of tobacco cutworm were dipped in the dilution for 5 seconds, and the excessive dilution was removed by a filter paper. Then, the larvae were set free in a plastic cup and an artificial diet was supplied thereto. The cup was allowed to stand still in a thermostat chamber maintained at 25° C. After 24 hours, the numbers of the killed and living larvae were counted and the mortality was calculated. The test was made on three cups and the result was expressed by an average value.

German cockroach = test: Test 7: Effect on German Cockroach; format: in vivo; conditions: Blattella germanica, male adults, agonized and killed after 24 hours, read-out: Mortality (%); for mortality at 10 mg/m2: 10 mg/m^2; for mortality at 50 mg/m2: 50 mg/m^2
Description: as §1
The bottom face of a high Petri dish having a diameter of 9 cm and a height of 9 cm was treated with 50 or 10 mg/m^2 of a test compound and the dish was air-dried. In order to prevent the adults from escaping from the dish, the inner wall of the dish was treated with butter. Then, 10 male adults of German cockroach were set free in each dish, and the dish was placed in a thermostat chamber maintained at 25° C. After 24 hours, the number of agonized and killed adults was counted. The test was made on two dishes and the average value was calculated.

tobacco cutworm [5] = test: Test 1: Effect on Tobacco Cutworm (leaf immersion), mortality after 24 hours; format: in vivo; conditions: second-instar larvae, 25° C
Description: as §1
An emulsifiable concentrate of a test compound prepared according to the method described in Formulation Example 1 was diluted to a concentration of 100 or 20 ppm. Sweet-potato leaves were immersed in the dilution for 10 seconds, air-dried and placed in a plastic cup having a diameter of 10 cm. Then second-instar larvae of tobacco cutworm were set free in the cup. The cup was allowed to stand still in a thermostat chamber maintained at 25° C. After 24 hours, the numbers of killed and living larvae were counted and the mortality was calculated. The obtained result was expressed by an average value obtained from the mortality calculated in three test cups.

diamond back moth = test: Test 4: Effect on Diamond Back Moth; format: in vivo; conditions: Plutella, third-instar larvae, 24 hours, read-out: Mortality (%)
Description: as §1
Cabbage leaves were spread in a plastic cup, and 10 third-instar larvae of diamond back moth were set free in the cup.
A chemical dilution having a concentration of 100 or 20 ppm, prepared in the same manner as described in Test 1, was applied from an applicator at a rate of 3 ml per cup.
After scattering of the chemical dilution, the cup was covered, and after 24 hours, the numbers of killed and living larvae were counted and the mortality was calculated. The test was made on three cups and the average value was calculated.

[6] = fifth-instar larvae, read-out: Motality (%), Fifth-Instar Larvae
[7] = second-instar larvae, read-out: Motality (%), Second-Instar Larvae

| SMILES | mortality at 20 ppm [1] [%] | mortality at 100 ppm [1] [%] | mortality at 20 ppm [2] [%] | mortality at 100 ppm [2] [%] | LC50 at 48 h (Test 8: Fish Toxicity) [µg/mL] | LD50 at 168 h [3] [mg/kg] | mortality at 20 ppm (tobacco cutworm [4]; [6]) [%] | mortality at 20 ppm (tobacco cutworm [4]; [7]) [%] | mortality at 100 ppm (tobacco cutworm [4]; [6]) [%] | mortality at 100 ppm (tobacco cutworm [4]; [7]) [%] | mortality at 10 mg/m2 (German cockroach) [%] | mortality at 50 mg/m2 (German cockroach) [%] | mortality at 20 ppm (tobacco cutworm [5]) [%] | mortality at 100 ppm (tobacco cutworm [5]) [%] | mortality at 20 ppm (diamond back moth) [%] | mortality at 100 ppm (diamond back moth) [%] |
| --- | --- | --- | --- | --- | --- | --- | --- | --- | --- | --- | --- | --- | --- | --- | --- | --- |
| Cc1ccc(Oc2cccc(COCC(C)(C)c3ccc(Cl)cc3)c2)cc1 [Compound 19, 3-(4-methylphenoxy)benzyl 2-(4-chlorophenyl)-2-methylpropyl ether] | 90 | 100 | 100 | 100 | > 10 | > 500 | – | – | – | – | – | – | – | – | – | – |
| CC(C)C(C(=O)OC(C#N)c1cccc(Oc2ccccc2)c1)c1ccc(Cl)cc1 (centres unmarked) [Comparative Compound (a), reference compound] | – | – | – | – | < 0.005 | 260 | – | – | – | – | – | – | – | – | – | – |
| COc1ccc(Oc2cccc(COCC(C)(C)c3ccccc3)c2)cc1 [Compound 13, 3-(4-methoxyphenoxy)benzyl 2-phenyl-2-methylpropyl ether] | 50 | 100 | 70 | 100 | > 10 | > 500 | – | – | – | – | – | – | – | – | – | – |
| CC(F)(F)Oc1ccc(C(C)(C)COCc2cccc(Oc3ccccc3)c2)cc1 [Compound 79, 3-Phenoxybenzyl 2-[4-(1,1-difluoroethoxy)phenyl]-2-methylpropyl ether] | – | – | – | – | – | > 500 | 50 | 80 | 90 | 100 | 100 | 100 | – | – | – | – |
| C=COc1ccc(C(C)(C)COCc2cccc(Oc3ccccc3)c2)cc1 [Compound 67, 3-Phenoxybenzyl 2-(4-vinyloxyphenyl)-2-methylpropyl ether] | – | – | – | – | – | > 500 | 100 | 100 | 100 | 100 | 100 | 100 | 90 | 100 | 90 | 100 |
| CC(C)(COCc1cccc(Oc2ccccc2)c1)c1ccc(Br)cc1 [Compound 107, 3-Phenoxybenzyl 2-(4-bromophenyl)-2-methylpropyl ether] | 100 | 100 | 100 | 100 | > 1 | > 500 | – | – | – | – | – | – | – | – | – | – |
| CC(C)(COCc1cccc(Oc2ccccc2)c1)c1ccc(I)cc1 [Compound 65, 3-Phenoxybenzyl 2-(4-iodophenyl)-2-methylpropyl ether] | 100 | 100 | 100 | 100 | – | > 500 | – | – | – | – | 90 | 100 | 90 | 100 | – | – |
| CC(C)(COCc1cccc(Oc2cccc(Cl)c2)c1)c1ccc(Cl)c(Cl)c1 [Compound 38, 3-(3-Chlorophenoxy)benzyl 2-(3,4-dichlorophenyl)-2-methylpropyl ether] | 80 | 100 | 95 | 100 | – | > 500 | – | – | – | – | 90 | 100 | – | – | – | – |
| Cc1ccc(C(C)(C)COCc2cccc(Oc3ccccc3)c2)cc1C [Compound 109] | 70 | 100 | 90 | 100 | – | > 500 | – | – | – | – | 100 | 100 | – | – | – | – |
| CC1(C)C(C=C(Cl)Cl)C1C(=O)OCc1cccc(Oc2ccccc2)c1 (centres unmarked) [(i), Permethrin, reference compound] | – | – | – | – | < 0.005 | – | – | – | – | – | – | – | – | – | – | – |
| CC(C)(COCc1cccc(Oc2ccccc2)c1)c1ccc(OC(F)(F)CI)cc1 [Compound 74, 3-Phenoxybenzyl 2-[4-(1,1-difluoro-2-iodoethoxy)phenyl]-2-methylpropyl ether] | – | – | – | – | – | > 500 | 50 | 70 | 80 | 100 | 100 | 100 | 100 | 100 | – | – |
| CC(C)(COCc1cccc(Oc2ccc(F)cc2)c1)c1cccc(C(F)(F)F)c1 [Compound 23, 3-(4-Fluorophenoxy)benzyl 2-(3-trifluoromethylphenyl)-2-methylpropyl ether] | – | – | – | – | > 1 | > 500 | – | – | – | – | – | – | 80 | 100 | – | – |
| CC(C)(COCc1cccc(Oc2ccccc2)c1)c1ccc(SC(F)(F)F)cc1 [Compound 104, 3-Phenoxybenzyl 2-(4-trifluoromethylthiophenyl)-2-methylpropyl ether] | – | – | – | – | – | > 500 | – | – | – | – | 90 | 100 | – | – | 70 | 100 |
| CC(C)(COCc1cccc(Oc2ccccc2)c1)c1ccc([N+](=O)[O-])cc1 [Compound 43, 3-Phenoxybenzyl 2-(4-nitrophenyl)-2-methylpropyl ether] | 90 | 100 | 100 | 100 | – | > 500 | – | – | – | – | 100 | 100 | 85 | 100 | – | – |
| CC(C)(COCc1cccc(Oc2ccccc2)c1)c1ccc(OC2CCCC2)cc1 [Compound 61, 3-Phenoxybenzyl 2-(4-cyclopentyloxyphenyl)-2-methylpropyl ether] | 100 | 100 | 100 | 100 | – | > 500 | – | – | – | – | 70 | 100 | – | – | – | – |
| CC(C)(COCc1cccc(Oc2ccc(F)cc2)c1)c1ccc(Cl)c(Cl)c1 [Compound 17, 3-(4-fluorophenoxy)benzyl 2-(3,4-dichlorophenyl)-2-methylpropyl ether] | 100 | 100 | 100 | 100 | – | > 500 | – | – | – | – | 100 | 100 | 80 | 100 | 90 | 100 |
| CC(C)(COCc1cccc(Oc2ccc(Br)cc2)c1)c1ccc(Cl)c(Cl)c1 [Compound 21, 3-(4-Bromophenoxy)benzyl 2-(3,4-dichlorophenyl)-2-methylpropyl ether] | 60 | 100 | 85 | 100 | > 10 | > 500 | – | – | – | – | – | – | – | – | – | – |
